Literature values, collected in patent US20210147810A1, “SINGLE LUNG CELL-DERIVED ORGANOIDS” (Rutgers, The State University of New Jersey, priority 2017, published 2021).

Tested on: PTPRT-mutant NSCLC
Details: in vivo

CC(=O)c1cc2c(o1)C(=O)c1ccccc1C2=O [BBI608]
anti-tumor activity: effective anti-tumor activity
